# According to patent EP1452605A1, “Method for determining antiviral activity” (Universiteit Utrecht Holding B.V., priority 2003, dated 2004):
# Where “and” joins values, the source holds several entries; their conditions need not be identical. Identical values can stand only once.
# How the values were obtained:
# HIV-1HXB2 = test: Reverse transcription assay in PBMC: (-) strong stop and gag DNA by real-time Taqman PCR; format: cell-based; conditions: 10h after infection; for reduction in gag cDNA copies: PBMC
# Protocol: PBMC infection with HIV-1Ba-L or HIV-1HXB2 for real-time Taqman PCR The ability of HIV-1Ba-L to enter the cells in the presence of APHS was tested using DS as positive control (entry assay). The amount of HIV-1HXB2 reverse transcription products in the presence of APHS was also tested, using AZT as positive control (reverse transcription assay). Before infection, PHA-stimulated PBMC from the PBMC batch were pre-incubated with different concentrations of APHS, DS or AZT for 24 h. Afterwards, cells were washed and 1 × 10^6 PBMC were incubated for 40 min with HIV-1Ba-L or HIV-1HXB2 at an M.O.I. of 0.0025 and with appropriate concentrations of APHS, AZT, DS or medium in the presence of 1/20 concentrated M buffer (Roche) and 4U/ml DNase (Roche) to digest possible contaminating viral DNA associated with the virions. Afterwards PBMC were washed and resuspended in medium with or without compounds. Cells were treated with 1 mg/ml Pronase (Roche) to remove virus particles bound to the cells. […] At different time points, 1.0 × 10^6 cells were added to 900 µl Nuclisens lysis buffer (Organon Teknika, Boxtel, The Netherlands) containing 40 µl silica to bind total nucleic acids (Nuclisens isolation kit). For the entry assay, samples were collected 2h after the start of the infection and for the reverse transcription assays samples were collected 2, 7 and 10h after the start of the infection.
# HIV RNA and DNA were extracted from samples of infected cells according to a method described before ^23. Briefly, after 10 min of mixing the silica and lysis buffer, tubes were shortly centrifuged at 13,000 rpm and supernatant was discarded. Free non-nucleic acid components were removed by washing the silica particles twice with Nuclisens washing buffer, twice with 70 % ethanol and once with acetone. The silica pellet was dried for 10 min at 56 °C. Total nucleic acids were eluted by resuspending the pellet in 100 µl nuclease-free water. After mixing the tubes for 10 min at 56 °C, tubes were shortly centrifuged and the supernatant was transferred to a new tube and stored at -20 °C.
# Real-time Taqman PCR is based on cleavage of a probe, hybridized to the target sequence by 5'-3' nuclease activity of Taq DNA polymerase during amplification, as described previously ^24. Briefly, target sequence-specific forward and reverse primers prime the amplification reaction. The probe contains a reporter dye at the 5' end and a quencher dye at the 3' end. When both dyes are attached to the probe, reporter dye emission is quenched. The probe is displaced from the target during each polymeration cycle. Once separated from the quencher, the reporter dye emits its characteristic fluorescence, which can then be measured. The amount of fluorescence measured is proportional to the amount of PCR product.
# HIV-1 gag cDNA and HIV-1 (-) strong stop and gag DNA were amplified and quantified by real-time Taqman PCR as described elsewhere ^25. Sets of primers/probes were designed according to a previous study by Zack and colleagues ^26. To quantify the amount of gag RNA in the samples, a cDNA standard curve was prepared from five-fold dilutions of extracted RNA from an HXB2 viral batch, of which the RNA amount was previously determined. To quantify (-) strong stop and gag DNA in the samples, a DNA standard curve was prepared from five-fold dilutions of DNA extracted from U1 cells, which contain two copies of the HIV-1HXB2 genome per cell. Albumin was also quantified and used for normalization of all samples.
# in vitro = conditions: human
# HIV-1Ba-L [1] = test: Combination of HIV-1 inhibitors in HIV-1Ba-L infected PBMC (checker board, CalcuSyn)
# Protocol: After 7 days of incubation, p24 antigen in culture supernatant was quantified by ELISA and cellular viability was assessed by a cytotoxicity assay. fa was calculated for each drug combination after p24 quantification. Using the CalcuSyn program, dose-effect curves were plotted for each drug combination, i.e., each dose was plotted against the corresponding fa value. […] CI values were calculated using the mutually nonexclusive assumption.
# HIV-1Ba-L [2] = test: HIV-1 infection of PBMC, p24-core antigen ELISA; format: cell-based; conditions: Human immunodeficiency virus 1, PBMC; read-out: IC50
# Protocol: To correct for the input virus, an extra control consisting of medium containing the same amount of input virus as added to the cells was included in the experiment. The amount of p24 in this control was subsequently subtracted from the p24 values of the samples in order to obtain the exact amount of p24 produced by the cells. p24-core antigen quantification by ELISA After 2 or 7 days incubation, samples of the supernatants were collected, inactivated by addition of Empigen (Calbiochem, La Jolla, CA, USA) and by heat inactivation at 56°C for 30 min. p24-core antigen concentration was determined by an enzyme linked immunoabsorbent assay (ELISA) (AMPAK™, DAKO, Cambridgeshire, UK) as described previously ^18,19. The optical density values were converted into p24 concentration (ng/ml) with the use of a calibration curve made by serial dilutions of recombinant p24 protein (NIBSC, UK) that was submitted to the same treatment as the samples.
# (§1) To correct for the input virus, an extra control consisting of medium containing the same amount of input virus as added to the cells was included in the experiment. The amount of p24 in this control was subsequently subtracted from the p24 values of the samples in order to obtain the exact amount of p24 produced by the cells.
# (§2) After 7 days incubation, samples of the supernatants were collected, inactivated by addition of Empigen (Calbiochem, La Jolla, CA, USA) and by heat inactivation at 56°C for 30 min. p24-core antigen concentration was determined by an ELISA (AMPAK™, DAKO, Cambridgeshire, UK) as described previously ^39,40. The optical density values were converted into p24 concentration (ng/ml) with the use of a calibration curve made by serial dilutions of recombinant p24 protein (NIBSC, UK) that was submitted to the same treatment as the samples.
# as §1
# as §2, with “enzyme linked immunoabsorbent assay (ELISA)” for “ELISA”, “15,16.” for “^39,40.”
# Mouse L cells = test: Cytotoxicity in mouse L cells by microscopic observation; conditions: mouse L cells, all tested concentrations
# Protocol: (§3) After 24h, the cytopatic effect (CPE) of the virus and the cytotoxicity of the compounds were scored by microscopic observation.
# MHV-A59 = test: MHV infection of mouse L cells, CPE scoring; format: cell-based, Mouse hepatitis virus (MHV); conditions: 24h, 143 to 0.009 µM
# Protocol: as §3
# CrFK cells = test: Cellular viability assay (MTT) of CrFK cells; format: cell-based, feline; conditions: concentrations used in the FIV assay
# FIV UT-113 = test: FIV infection of CrFK cells, FIV p24 ELISA; format: cell-based, Feline immunodeficiency virus (FIV); conditions: 100 to 0.024 µM, p24 after 6 days
# Protocol: After 6 days of incubation FIV replication was measured by quantification of the p24 viral core antigen in the cell culture supernatant by an FIV p24 enzyme-linked immunoabsorbent assay as described previously ^19.
SMILES,reduction in gag cDNA copies (HIV-1HXB2; 5 nM AZT),reduction in gag cDNA copies (HIV-1HXB2; 1000 nM AZT) [%],"(-) strong stop DNA copy numbers versus untreated PBMC (HIV-1HXB2; 10 or 30 µM APHS, 5 or 1000 nM AZT)",CC50 at 7 days (in vitro) [nM],"IC50 (HIV-1Ba-L [1]; Human immunodeficiency virus 1, PBMC, 168 h, read-out: IC50 Drug, drug alone, head over this column prints Combination) [nM]","IC50 (HIV-1Ba-L [1]; read-out: IC50 Combination Drug, drug in combination with APHS at the equipotent ratio (1 : 1)) [nM]",IC50 (HIV-1Ba-L [2]) [nM],cytotoxicity by microscopic observation (Mouse L cells),effect on MHV replication (CPE) (MHV-A59),cytotoxicity for CrFK cells (CrFK cells),effect on FIV replication (FIV UT-113)
"Cc1cn([C@H]2C[C@H](N=[N+]=[N-])[C@@H](CO)O2)c(=O)[nH]c1=O [AZT, zidovudine]",35% and 40%,90,did not show a significant decrease,> 80000,3,2,3,,,,
"CCCCCSc1ccccc1O [APHS-d, phenol, 2-(pentylthio)]",,,,,,,,not cytotoxic,no effect,not cytotoxic,did not show any effect
